Data taken from ChEMBL document CHEMBL1126611, “Modulation of leukocyte genetic expression by novel purine nucleoside analogues. A new approach to antitumor and antiviral agents” (1993).

What was measured:
Mus musculus [1] = test: Activity against Forest virus infection in mice after intraperitoneal administration of 50 mg/kg; format: functional
Mus musculus [2] = species: Mus musculus; test: Inhibition of […] murine melanoma artificial metastasis in lungs of C57BL/6j mice expressed as average of B16-F10 colonies in lungs from 6 or 7 mice on 18-19th days (no. of mice = 7); format: functional, Lung
Mus musculus [3] = species: Mus musculus; test: Mean survival time of Forest virus infected mice that died; survivors lived through 21 days; format: functional
Mus musculus [4] = test: Activity against Forest virus infection in mice after intraperitoneal administration of 100 mg/kg; format: functional
Mus musculus [5] = test: Activity against San Angelo virus infection in mice after intraperitoneal administration of 50 mg/kg; format: functional
Mus musculus [6] = species: Mus musculus; test: Inhibition of […] murine melanoma artificial metastasis in lungs of C57BL/6j mice expressed as average of B16-F10 colonies in lungs from 6 or 7 mice on 17th day (no. of mice = 6); format: functional, Lung
Mus musculus [7] = species: Mus musculus; test: Activity against Forest virus infection in mice; format: functional
Mus musculus [8] = test: Activity against San Angelo virus infection in mice after intraperitoneal administration of 100 mg/kg; format: functional
Mus musculus [9] = test: Mean survival time of San Angelo virus infected mice that died; survivors lived through 21 days after intraperitoneal administration of 100 mg/kg; format: functional
Mus musculus [10] = species: Mus musculus; test: Mean survival time of San Angelo virus infected mice that died; survivors lived through 21 days; format: functional
Mus musculus [11] = test: Mean survival time of Forest virus infected mice that died; survivors lived through 21 days after oral administration of 200 mg/kg; format: functional
Mus musculus [12] = test: Activity against Forest virus infection in mice after oral administration of 200 mg/kg; format: functional
Mus musculus [13] = test: Mean survival time of Forest virus infected mice that died; survivors lived through 21 days after intraperitoneal administration of 100 mg/kg; format: functional
Mus musculus [14] = test: Mean survival time of San Angelo virus infected mice that died; survivors lived through 21 days after intraperitoneal administration of 50 mg/kg; format: functional
Mus musculus [15] = test: Mean survival time of San Angelo virus infected mice that died; survivors lived through 21 days after intraperitoneal administration of 25 mg/kg; format: functional
Mus musculus [16] = test: Mean survival time of Forest virus infected mice that died; survivors lived through 21 days after intraperitoneal administration of 50 mg/kg; format: functional
Mus musculus [17] = species: Mus musculus; test: Activity against San Angelo virus infection in mice; format: functional
Mus musculus [18] = test: Activity against San Angelo virus infection in mice after intraperitoneal administration of 25 mg/kg; format: functional
Mus musculus [19] = species: Mus musculus; test: Mean survival time mice that died; survivors lived through 21 days; format: functional
Mus musculus [20] = test: Mean survival time of San Angelo virus infected mice that died; survivors lived through 21 days after intraperitoneal administration of 10 mg/kg; format: functional
Mus musculus [21] = test: Mean survival time Forest virus infectedof mice that died; survivors lived through 21 days after intraperitoneal administration of 25 mg/kg; format: functional
Mus musculus [22] = test: Activity against San Angelo virus infection in mice after intraperitoneal administration of 10 mg/kg; format: functional
Mus musculus [23] = test: Activity against Forest virus infection in mice, ip; format: functional
Mus musculus [24] = test: Activity against Forest virus infection in mice after intraperitoneal administration of 25 mg/kg; format: functional
Rattus norvegicus = test: Compound at a dose 100 mg/kg was administered to rat and Percent survivors after coronavirus infection in suckling rats.; format: functional
Mus musculus [25] = test: Mean survival time of Forest virus infected mice that died; survivors lived through 21 days after intraperitoneal administration of 200 mg/kg; format: functional
Mus musculus [26] = test: Activity against Forest virus infection in mice after intraperitoneal administration of 200 mg/kg; format: functional

SMILES: Nc1nc2c(ccn2[C@@H]2O[C@H](CO)[C@@H](O)[C@H]2O)c(=O)[nH]1
- Survivors (Mus musculus [1]): 83%
- Mean (Mus musculus [2]): 0.17
- Mean survival (Mus musculus [3]): 7.4 days
- Survivors (Mus musculus [4]): 83%
- Survivors (Mus musculus [5]): 100%
- Mean (Mus musculus [6]): 0.14
- Survivors (Mus musculus [7]): 8%
- Survivors (Mus musculus [8]): 100%
- Mean survival (Mus musculus [9]): >21 days
- Mean survival (Mus musculus [10]): 7.9 days
- Mean survival (Mus musculus [11]): 8 days
- Survivors (Mus musculus [12]): 83%
- Mean survival (Mus musculus [13]): 6.5 days
- Mean survival (Mus musculus [14]): >21 days
- Mean survival (Mus musculus [15]): 9 days
- Mean survival (Mus musculus [16]): 6 days
- Survivors (Mus musculus [17]): 33%
- Survivors (Mus musculus [18]): 92%

SMILES: N#Cc1cn(C2O[C@H](CO)[C@@H](O)[C@H]2O)c2nc(N)nc(O)c12 (some centres undefined)
- Mean survival (Mus musculus [3]): 6 days
- Survivors (Mus musculus [4]): 50%
- Survivors (Mus musculus [7]): 8%
- Mean survival (Mus musculus [13]): 8.5 days

SMILES: Nc1nc(O)c2cc(Cl)n(C3O[C@H](CO)[C@@H](O)[C@H]3O)c2n1 (some centres undefined)
- Survivors (Mus musculus [1]): 100%
- Mean survival (Mus musculus [3]): 6.5 days
- Mean survival (Mus musculus [19]): 7 days
- Mean survival (Mus musculus [20]): 8 days
- Mean survival (Mus musculus [21]): 6 days
- Survivors (Mus musculus [4]): 92%
- Survivors (Mus musculus [22]): 58%
- Survivors (Mus musculus [23]): 8%
- Survivors (Mus musculus [5]): 100%
- Survivors (Mus musculus [24]): 92%
- Mean survival (Mus musculus [10]): 7.2 days
- Survivors (Rattus norvegicus): 92%
- Mean survival (Mus musculus [13]): 7 days
- Mean survival (Mus musculus [14]): >21 days
- Mean survival (Mus musculus [15]): >21 days
- Mean survival (Mus musculus [16]): >21 days
- Survivors (Mus musculus [17]): 18%
- Survivors (Mus musculus [18]): 100%

SMILES: Nc1nc(O)c2c(C(=O)O)cn(C3O[C@H](CO)[C@@H](O)[C@H]3O)c2n1 (some centres undefined)
- Mean survival (Mus musculus [3]): 6.8 days
- Survivors (Mus musculus [4]): 8%
- Mean survival (Mus musculus [25]): 6 days
- Survivors (Mus musculus [7]): 17%
- Survivors (Mus musculus [26]): 33%
- Mean survival (Mus musculus [13]): 8.1 days

SMILES: Cn1c(=S)n(C2O[C@H](CO)[C@@H](O)[C@H]2O)c2nc(N)nc(O)c21 (some centres undefined)
- Survivors (Rattus norvegicus): 58%

SMILES: Cn1c(=O)n(C2O[C@H](CO)[C@@H](O)[C@H]2O)c2nc(N)nc(O)c21 (some centres undefined)
- Survivors (Rattus norvegicus): 75%

SMILES: Nc1nc(=O)c2sc(=O)n([C@@H]3O[C@H](CO)[C@@H](O)[C@H]3O)c2[nH]1 [ISATORIBINE]
- Survivors (Rattus norvegicus): 83%
